Reference: PubChem BioAssay AID256 (DTP/NCI, 2004)
Values joined by “and” are separate entries in the source; they are usually repeats but may differ in a detail not shown here. Equal entries are not always repeated. Inconclusive results and toxic doses are left out. Rule for the calls: active = survival T/C of 150% or more; inactive = T/C below 125% in these data. Non-standard residues stand in square brackets, D forms with d. Residues, ends and D or L forms follow the SMILES beside them. ξ: configuration not given here. *: point of attachment. Hexanoyl = CCCCCC(=O)*; ξP = O=C(O)C1CCCN1; Ava = NCCCCC(=O)O

Tested on: CD2F1 mice, L1210 leukemia ip, survival T/C
Test: NCI In Vivo Anticancer Drug Screen. Data for tumor model L1210 Leukemia (intraperitoneal) in CD2F1 (CDF1) mice
Details: endpoint: mean survival time, higher = longer survival
In short: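 Compound-dosed mice with transplantable tumor versus matched vehicle controls; endpoint ratio T/C reported.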

[1] = dose: 25.0 mg/kg/injection, schedule: Q01DX009 (ip), vehicle: Klucel (hydroxypropylcellulose) (HPC)
[2] = dose: 50.0 mg/kg/injection, schedule: Q01DX009 (ip), vehicle: Klucel (hydroxypropylcellulose) (HPC)
[3] = dose: 100.0 mg/kg/injection, schedule: Q01DX009 (ip), vehicle: Klucel (hydroxypropylcellulose) (HPC)
[4] = dose: 100.0 mg/kg/injection, schedule: Q01DX001 (ip), vehicle: saline with Tween-80
[5] = dose: 200.0 mg/kg/injection, schedule: Q01DX001 (ip), vehicle: saline with Tween-80
[6] = dose: 400.0 mg/kg/injection, schedule: Q01DX001 (ip), vehicle: saline with Tween-80
[7] = dose: 100.0 mg/kg/injection, schedule: Q04DX003 (ip), vehicle: saline with Tween-80
[8] = dose: 200.0 mg/kg/injection, schedule: Q04DX003 (ip), vehicle: saline with Tween-80
[9] = dose: 400.0 mg/kg/injection, schedule: Q04DX003 (ip), vehicle: saline with Tween-80
[10] = dose: 25.0 mg/kg/injection, schedule: Q01DX009 (ip), vehicle: saline with Tween-80
[11] = dose: 50.0 mg/kg/injection, schedule: Q01DX009 (ip), vehicle: saline with Tween-80
[12] = dose: 100.0 mg/kg/injection, schedule: Q01DX001 (ip), vehicle: saline
[13] = dose: 200.0 mg/kg/injection, schedule: Q01DX001 (ip), vehicle: saline
[14] = dose: 400.0 mg/kg/injection, schedule: Q01DX001 (ip), vehicle: saline
[15] = dose: 100.0 mg/kg/injection, schedule: Q01DX009 (ip), vehicle: saline with Tween-80
[16] = dose: 200.0 mg/kg/injection, schedule: Q01DX009 (ip), vehicle: saline with Tween-80
[17] = dose: 12.5 mg/kg/injection, schedule: Q01DX009 (ip), vehicle: saline with Tween-80

Measured: T/C

O=S(=O)(F)c1cc(Cl)c(O)c(S(=O)(=O)F)c1
inactive: [1] 97 % of control | [2] 103 % of control | [3] 101 % of control

CC[n+]1ccc(Cc2ccc([N+](=O)[O-])cc2)cc1
inactive: dose: 100.0 mg/kg/injection, schedule: Q04DX003 (ip), vehicle: Klucel (hydroxypropylcellulose) (HPC) 105 % of control

O=[N+]([O-])c1ccc(O)c(N=Cc2ccccc2O)c1
inactive: dose: 100.0 mg/kg/injection, schedule: Q04DX002 (ip), vehicle: Klucel (hydroxypropylcellulose) (HPC) 105 % of control | dose: 200.0 mg/kg/injection, schedule: Q04DX002 (ip), vehicle: Klucel (hydroxypropylcellulose) (HPC) 97 % of control | dose: 400.0 mg/kg/injection, schedule: Q04DX002 (ip), vehicle: Klucel (hydroxypropylcellulose) (HPC) 97 % of control

ClCCCC1(CCCCl)OCCO1
inactive: dose: 100.0 mg/kg/injection, schedule: Q04DX002 (ip), vehicle: saline with Tween-80 101 % of control | dose: 200.0 mg/kg/injection, schedule: Q04DX002 (ip), vehicle: saline with Tween-80 97 % of control | dose: 400.0 mg/kg/injection, schedule: Q04DX002 (ip), vehicle: saline with Tween-80 104 % of control

Cc1cc(N(CCI)CCI)ccc1N=Nc1ccccc1C(=O)O
inactive: [1] 122 % of control | [2] 122 % of control | [3] 122 % of control

O=C(CCl)c1ccc(Cl)cc1
inactive: dose: 12.0 mg/kg/injection, schedule: Q01DX009 (ip), vehicle: saline with Tween-80 102 % of control | dose: 24.0 mg/kg/injection, schedule: Q01DX009 (ip), vehicle: saline with Tween-80 104 % of control | dose: 48.0 mg/kg/injection, schedule: Q01DX009 (ip), vehicle: saline with Tween-80 103 % of control

COc1ccc(C2OC23CC(C)(C)c2ccccc2C3=O)cc1 (stereo not drawn)
inactive: dose: 100.0 mg/kg/injection, schedule: Q01DX009 (ip), vehicle: other 107 % of control | dose: 200.0 mg/kg/injection, schedule: Q01DX009 (ip), vehicle: other 100 % of control | dose: 400.0 mg/kg/injection, schedule: Q01DX009 (ip), vehicle: other 91 % of control

FCCc1ccc(F)cc1
inactive: [4] 101 % of control | dose: 100.0 mg/kg/injection, schedule: Q04DX003 (ip), vehicle: saline sonified 93 % of control | [5] 100 % of control | dose: 200.0 mg/kg/injection, schedule: Q04DX003 (ip), vehicle: saline sonified 100 % of control | [6] 101 % of control | dose: 400.0 mg/kg/injection, schedule: Q04DX003 (ip), vehicle: saline sonified 98 % of control

CCCCNC(=O)C1C2CCC(C2)C1C(=O)NCCCC (stereo not drawn)
inactive: [7] 98 % of control | [8] 98 % of control | [9] 90 % of control

CC(=O)CC(=O)N(C)Cc1ccccc1
inactive: [4] 101 % of control | [5] 104 % of control | [6] 107 % of control

CN(C)c1ccc(N=Nc2nccs2)cc1
inactive: dose: 18.7 mg/kg/injection, schedule: Q04DX003 (ip), vehicle: saline with Tween-80 86 % of control | dose: 37.5 mg/kg/injection, schedule: Q04DX003 (ip), vehicle: saline with Tween-80 102 % of control | dose: 75.0 mg/kg/injection, schedule: Q04DX003 (ip), vehicle: saline with Tween-80 96 % of control

C=CCOc1ccncc1
inactive: dose: 12.5 mg/kg/injection, schedule: Q01DX009 (ip), vehicle: saline sonified 101 % of control | dose: 12.5 mg/kg/injection, schedule: Q04DX003 (ip), vehicle: saline with Tween-80 93 % of control | dose: 25.0 mg/kg/injection, schedule: Q01DX009 (ip), vehicle: saline sonified 100 % of control | dose: 25.0 mg/kg/injection, schedule: Q04DX003 (ip), vehicle: saline with Tween-80 93 % of control | dose: 50.0 mg/kg/injection, schedule: Q01DX009 (ip), vehicle: saline sonified 101 % of control | dose: 50.0 mg/kg/injection, schedule: Q04DX003 (ip), vehicle: saline with Tween-80 93 % of control

CCCCCC(=O)NCC(=O)N1CCCC1C(=O)NCCCCC(=O)OC (stereo not drawn) (Hexanoyl-Gly-[ξP]-[Ava]-OMe)
inactive: dose: 100.0 mg/kg/injection, schedule: Q04DX003 (ip), vehicle: saline 98 % of control | dose: 200.0 mg/kg/injection, schedule: Q04DX003 (ip), vehicle: saline 107 % of control | dose: 400.0 mg/kg/injection, schedule: Q04DX003 (ip), vehicle: saline 103 % of control

CCCCCCCCCCOC(=O)Nc1cccc(O)c1
inactive: [7] 95 % of control | [8] 95 % of control | [9] 98 % of control

COc1ccc2ccccc2c1/C=N/N1CCCCC1
inactive: [7] 102 % of control | [8] 102 % of control | [9] 96 % of control

CCCCCCCCCCCCCCCC(=O)N(CCCCN(CCCN(C)C)C(=O)CCCCCCCCCCCCCCC)CCCN(C)C
inactive: [10] 93 % of control | [11] 91 % of control

CN(C(=O)Nc1ccc([N+](=O)[O-])cc1)c1ccccc1
inactive: [12] 96 % of control | [13] 98 % of control | [14] 102 % of control

NC(=O)c1ccc(Cl)c(Cl)c1
inactive: [15] 103 % of control | [16] 103 % of control

O=P(OCCCO)(N1CC1)N1CC1
inactive: dose: 25.0 mg/kg/injection, schedule: Q01DX001 (ip), vehicle: other 101 % of control | dose: 50.0 mg/kg/injection, schedule: Q01DX001 (ip), vehicle: other 101 % of control | dose: 100.0 mg/kg/injection, schedule: Q01DX001 (ip), vehicle: other 102 % of control | dose: 200.0 mg/kg/injection, schedule: Q01DX001 (ip), vehicle: other 98 % of control | dose: 400.0 mg/kg/injection, schedule: Q01DX001 (ip), vehicle: other 96 % of control

O=C(O)c1ccc(Cl)c(N=C/C=C/c2ccccc2)c1
inactive: dose: 75.0 mg/kg/injection, schedule: Q04DX003 (ip), vehicle: saline 97 % of control | dose: 150.0 mg/kg/injection, schedule: Q04DX003 (ip), vehicle: saline 100 % of control | dose: 300.0 mg/kg/injection, schedule: Q04DX003 (ip), vehicle: saline 100 % of control

O=C(Nc1ccc(Br)c2c(NC(=O)c3ccccc3)ccc(Br)c12)c1ccccc1
inactive: [15] 88 % of control and 93 % of control | [16] 97 % of control | dose: 400.0 mg/kg/injection, schedule: Q01DX009 (ip), vehicle: saline with Tween-80 93 % of control

COc1ccc(NC(=O)Nc2ccc(C)c([N+](=O)[O-])c2)c(OC)c1
inactive: [17] 97 % of control | [10] 103 % of control | [11] 88 % of control and 94 % of control

O=S(=O)(O)c1ccc(N=Nc2cc(O)cc3ccccc23)cc1
inactive: dose: 6.25 mg/kg/injection, schedule: Q01DX001 (ip), vehicle: saline 96 % of control | dose: 12.5 mg/kg/injection, schedule: Q01DX001 (ip), vehicle: saline 92 % of control | dose: 25.0 mg/kg/injection, schedule: Q01DX001 (ip), vehicle: saline 88 % of control | [12] 86 % of control | [13] 88 % of control | [14] 96 % of control

CCN(CC)c1ccc(N=Cc2cc(=O)n(C)c3ccccc23)cc1
inactive: [4] 102 % of control | [6] 91 % of control

[N-]=[N+]=NCCCCCCCCCCN=[N+]=[N-]
inactive: dose: 75.0 mg/kg/injection, schedule: Q01DX001 (ip), vehicle: saline 98 % of control | dose: 150.0 mg/kg/injection, schedule: Q01DX001 (ip), vehicle: saline 101 % of control | dose: 300.0 mg/kg/injection, schedule: Q01DX001 (ip), vehicle: saline 98 % of control

[N-]=[N+]=CC(=O)CCC(=O)C=[N+]=[N-]
inactive: dose: 12.5 mg/kg/injection, schedule: Q01DX009 (ip), vehicle: other 106 % of control | dose: 25.0 mg/kg/injection, schedule: Q01DX009 (ip), vehicle: other 90 % of control

C[CH2][Sn]1([CH2]C)[O]OC(c2ccccc2)[O]1 (stereo not drawn)
inactive: dose: 0.78 mg/kg/injection, schedule: Q01DX009 (ip), vehicle: saline with Tween-80 106 % of control | dose: 1.56 mg/kg/injection, schedule: Q01DX009 (ip), vehicle: saline with Tween-80 96 % of control | dose: 3.12 mg/kg/injection, schedule: Q01DX009 (ip), vehicle: saline with Tween-80 98 % of control | dose: 6.25 mg/kg/injection, schedule: Q01DX009 (ip), vehicle: saline with Tween-80 106 % of control | [17] 112 % of control
